# Measured values from PMC7688046 (ACS Pharmacology & Translational Science, 2020).
# What was measured:
# [1] = biological target: SARS-CoV-2 spike protein RBD (RBD-Fc) binding to human ACE2 (ACE2-His-Avi) (Homo sapiens, UniProt Q9BYF1); experiment: biochemical; set-up: species or system human ACE2 / SARS-CoV-2 spike
# [2] = tested on: biotinylated rabbit IgG (Fc-protein A and streptavidin–biotin interactions); experiment: Biotin-IgG counterassay; details: cherry-pick hit confirmation
# ACE2 = details: at current writing; ref NCATS OpenData Portal; cited from earlier work
# cytopathic effects (CPE) = details: at current writing; ref NCATS OpenData Portal; cited from earlier work
# [3] = tested on: streptavidin donor beads / biotin-BSA acceptor beads; details: primary counterscreen
# [4] = biological target: RBD-Fc interaction with ACE2-His-Avi (Homo sapiens, UniProt Q9BYF1); type: binding, human ACE2 / SARS-CoV-2 spike
# Sequence of RBD-Fc interaction with ACE2-His-Avi (Q9BYF1 18-740): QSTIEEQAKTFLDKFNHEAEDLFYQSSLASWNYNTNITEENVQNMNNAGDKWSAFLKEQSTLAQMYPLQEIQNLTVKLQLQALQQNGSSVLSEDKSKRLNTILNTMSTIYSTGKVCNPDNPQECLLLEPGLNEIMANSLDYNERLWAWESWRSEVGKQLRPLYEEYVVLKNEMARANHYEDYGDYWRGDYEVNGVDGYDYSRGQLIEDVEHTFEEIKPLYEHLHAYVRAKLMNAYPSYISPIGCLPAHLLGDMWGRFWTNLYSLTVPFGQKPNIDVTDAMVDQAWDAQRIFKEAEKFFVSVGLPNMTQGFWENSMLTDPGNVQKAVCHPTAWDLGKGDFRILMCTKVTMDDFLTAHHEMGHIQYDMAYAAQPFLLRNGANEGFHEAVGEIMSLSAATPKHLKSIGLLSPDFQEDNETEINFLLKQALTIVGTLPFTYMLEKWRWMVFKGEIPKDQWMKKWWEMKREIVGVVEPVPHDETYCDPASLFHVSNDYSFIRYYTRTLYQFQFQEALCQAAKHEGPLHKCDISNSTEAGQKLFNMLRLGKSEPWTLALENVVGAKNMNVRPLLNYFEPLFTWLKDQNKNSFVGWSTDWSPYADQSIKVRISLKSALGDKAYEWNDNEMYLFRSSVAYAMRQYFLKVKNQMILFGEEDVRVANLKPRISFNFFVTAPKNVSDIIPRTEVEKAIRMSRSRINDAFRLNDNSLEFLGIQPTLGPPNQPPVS
# Sequence of SARS-CoV-2 spike protein RBD (RBD-Fc) binding to human ACE2 (ACE2-His-Avi) (Q9BYF1 18-740): as above
compound,measurement,setting,value
O=C(O[C@@H]1O[C@@H]2COC(=O)c3cc(O)c(O)c(O)c3-c3c(cc(O)c(O)c3O)C(=O)O[C@H]([C@H]1O)[C@@H]2O)c1cc(O)c(O)c(O)c1 [Corilagin],IC50,[1],5.5 µM
same,activity in biotin-IgG counter assay,[2],not the biotin-IgG counter assay
same,activity in the ACE2 enzymatic assay,ACE2,weak activity
same,activity in blocking cytopathic effects (CPE),cytopathic effects (CPE),no activity
CC(C)(O/N=C(\C(=O)N[C@@H]1C(=O)N2C(C(=O)[O-])=C(C[n+]3ccccc3)CS[C@H]12)c1csc(N)n1)C(=O)O [ceftazidime],ACE2–RBD binding inhibition in the primary AlphaLISA screen,[1],no significant activity
same,activity in the TruHits counterscreen,[3],no significant activity
CCOC(=O)[C@H](CCc1ccccc1)N[C@@H](C)C(=O)N1CCC[C@H]1C(=O)O [enalapril],ACE2–RBD binding inhibition in the primary AlphaLISA screen,[1],none showed ACE2–RBD binding inhibition
NCCCC[C@H](N[C@@H](CCc1ccccc1)C(=O)O)C(=O)N1CCC[C@H]1C(=O)O [lisinopril],ACE2–RBD binding inhibition in the primary AlphaLISA screen,[1],none showed ACE2–RBD binding inhibition
CCOC(=O)[C@H](CCc1ccccc1)N[C@@H](C)C(=O)N1Cc2cc(OC)c(OC)cc2C[C@H]1C(=O)O [moexipril],ACE2–RBD binding inhibition in the primary AlphaLISA screen,[1],none showed ACE2–RBD binding inhibition
CCC(CC)COC(=O)[C@H](C)N[P@](=O)(OC[C@H]1O[C@@](C#N)(c2ccc3c(N)ncnn23)[C@H](O)[C@@H]1O)Oc1ccccc1 [remdesivir],ACE2–RBD binding inhibition in the primary AlphaLISA screen,[1],no significant activity
same,activity in the TruHits counterscreen,[3],no significant activity
ACE2-His,"competition for ACE2–RBD binding, AlphaLISA signal",[4],dose-dependent signal loss
